Test results: article PMC7993833, “EDP-938, a novel nucleoprotein inhibitor of respiratory syncytial virus, demonstrates potent antiviral activities in vitro and in a non-human primate model” (PLoS Pathogens, 2021)
“Also recorded” adds a separate entry of the source. Like-named read-outs stand apart in the source and are kept apart here.

Experiments:
[1] = tested on: GS-5806- and AZ-27-resistant RSV; test: Activity against GS-5806- and AZ-27-selected resistant viruses; format: cell-based, respiratory syncytial virus; conditions: own resistant virus
[2] = tested on: RSV; test: Single-round synchronized infection time-of-addition, RT-qPCR endpoint; format: cell-based, respiratory syncytial virus; conditions: HEp-2; MOI 3; cold-synchronized; 2x or 20x EC50; added 0-8 hpi; RT-qPCR at 24 hpi
Description: In order to help determine which step of the viral life cycle EDP-938 blocks multiple in vitro time-of-addition studies were performed. In the first study, EDP-938 was administered to cells infected with RSV-A Long at a MOI of 0.1 at 2 hours pre-infection (-2) or 2, 6, or 24 hours post-infection (hpi), and viral CPE evaluated 5 days later. […] A second time-of-addition study explored the ability of EDP-938 to protect not just a population experiencing a spreading infection, but individual cells already infected with RSV. Using a MOI of 3, which infects approximately 95% of all cells, virus was cold-adsorbed to the cells for 1 hour to synchronize infection before transfer to 37°C to induce fusion (marking the 0 hpi time point). Compound was added at times indicated and a 24 hpi RT-qPCR endpoint was employed to constrain viral replication cycle to a single complete cycle.
For single round infection synchronized infection 25,000 HEp-2 cpw seeded 1-day pre-infection. Plates brought to 4°C, viral infection at 3 MOI calculated for 30,000 cpw incubated at 4°C 1hr. Compound added to 0h plate and plates moved to 37°C. Compound added at 2h, 4h, 6h, and 8h post-incubation (when plates moved to 37°C) to appropriate plates. 24 hpi viral copies measured with RT-qPCR as described above.

[3] = tested on: recombinant RSV A2-line19F, N protein mutants; test: microbe, parasite or virus in culture; conditions: human respiratory syncytial virus
[4] = tested on: recombinant RSV A2-line19F, N protein mutants
[5] = tested on: RSV-B VR-955 EDP-938 resistant populations; test: Susceptibility of EDP-938 resistant RSV-B VR-955 populations; format: cell-based, respiratory syncytial virus
[6] = tested on: RSV; design: method as in PMID 31915807; conditions: patients who achieved RSV-604 levels in excess of the EC90; cited from earlier work
[7] = Plasma drug exposure in African Green monkey study; format: in vivo, African Green monkeys (Chlorocebus); conditions: both sexes, in vivo, 100 mg/kg BID oral, read-out: mean plasma Ctrough
Source text: The African green monkey model was selected for EDP-938 in vivo studies for its higher level of viral replication versus cotton rats and BALB/c mice. […] In this previous trial, patients who achieved RSV-604 levels in excess of the EC90 experienced a 2.31 log reduction in viral load. […] The lack of antiviral activity observed with RSV-604 could be a function of relatively poor potency compared to EDP-938 (Fig 1) and/or insufficient tissue exposure. While in this study the animals were not sacrificed and thus the drug level in the lung could not be determined, plasma samples were taken at 12h after the last dose (Ctrough) to confirm drug exposure. […] It is reasonable to project that given the same dose or exposure EDP-938 should perform better than RSV-604 in RSV infected patients as well.
A study of EDP-938 and RSV-604 in the African Green monkey (AGM) animal model was performed by BIOQUAL, Inc (Rockville, Maryland). Methods were similar to those run in a study by Ispas et al.. Six (6) male and 6 female AGMs (Chlorocebus) of 4–5 kg were purchased from PrimGen (Hines, Illinois). Each animal was challenged with 2 x 10^5 PFU of RSV A2 viral inoculum (Virapur, San Diego, CA). Four animals (2 per sex) in each group were treated with EDP-938, RSV-604, or vehicle control (0.5% w/v methylcellulose). […]

[8] = tested on: RSV-A Long; test: RT-qPCR viral load assay, RSV-A Long in HEp-2 cells; format: cell-based; conditions: human respiratory syncytial virus
[9] = tested on: RSV-A Long; test: CPE assay (ATPlite), RSV-A Long in HEp-2 cells; format: cell-based; conditions: human respiratory syncytial virus
[10] = tested on: RSV A2; test: RSV-infected African Green monkey model, viral load; format: in vivo, African Green monkeys (Chlorocebus); conditions: 100 mg/kg BID oral gavage; BAL
Description: African Green monkeys (AGMs) are permissive for human RSV infection and support a relatively higher level of viral replication compared to cotton rats and BALB/c mice. It has been previously validated as a non-human primate model for assessing in vivo efficacy of potential RSV vaccines and antiviral drugs. To evaluate the activity of EDP-938 in the AGM model, 4 animals each were treated with 100 mg/kg BID with EDP-938, RSV-604, or vehicle control via oral gavage starting 24 hours prior to RSV challenge and continuing for an additional 5 days. Samples were collected through bronchoalveolar lavage (BAL) and nasopharyngeal (NP) swab at various time points to determine viral load. […] Viral load in the NP swab samples was also determined.
A study of EDP-938 and RSV-604 in the African Green monkey (AGM) animal model was performed by BIOQUAL, Inc (Rockville, Maryland). Methods were similar to those run in a study by Ispas et al.. Six (6) male and 6 female AGMs (Chlorocebus) of 4–5 kg were purchased from PrimGen (Hines, Illinois). Each animal was challenged with 2 x 10^5 PFU of RSV A2 viral inoculum (Virapur, San Diego, CA). Four animals (2 per sex) in each group were treated with EDP-938, RSV-604, or vehicle control (0.5% w/v methylcellulose). The animals were dosed via oral gavage twice daily (every 12 hours), starting 24 hours prior to RSV challenge, and then continuing for an additional 5 days (6 total days of dose administration). Bronchoalveolar lavage (BAL) samples and nasopharyngeal (NP) swabs were collected for viral load determination.

[11] = tested on: RSV replicon; design: method as in PMID 25451060; conditions: compared to AZ-27; cited from earlier work
[12] = tested on: RSV; design: method as in PMID 19707346; conditions: premature infants; monthly injection; cited from earlier work
[13] = HEp-2, recombinant RSV Wild-type (WT), HEp2

Compound	activity against the virus selected for resistance with the same compound [1]	EC50 ([3]; HEp-2, recombinant RSV N K107N) [nM]	EC50 ([3]; HEp-2, recombinant RSV N K136R) [nM]	EC50 ([3]; HEp-2, recombinant RSV N L139I) [nM]	EC50 ([3]; HEp-2, recombinant RSV N M109I) [nM]	EC50 ([3]; HEp-2, recombinant RSV N M109K) [nM]	EC50 ([3]; HEp-2, recombinant RSV N M109T) [nM]	EC50 ([3]; HEp-2, recombinant RSV N N105D) [nM]	EC50 ([3]; HEp-2, recombinant RSV N S134T) [nM]	EC50 ([3]; HEp-2, recombinant RSV N V90A) [nM]	EC50 [3, 13] [nM]	EC50 Fold Change vs. WT ([4]; recombinant RSV N K107N) [fold]	EC50 Fold Change vs. WT ([4]; recombinant RSV N K136R) [fold]	EC50 Fold Change vs. WT ([4]; recombinant RSV N L139I) [fold]	EC50 Fold Change vs. WT ([4]; recombinant RSV N M109I) [fold]	EC50 Fold Change vs. WT ([4]; recombinant RSV N M109K) [fold]	EC50 Fold Change vs. WT ([4]; recombinant RSV N M109T) [fold]	EC50 Fold Change vs. WT ([4]; recombinant RSV N N105D) [fold]	EC50 Fold Change vs. WT ([4]; recombinant RSV N S134T) [fold]	EC50 Fold Change vs. WT ([4]; recombinant RSV N V90A) [fold]	other results
O=C(NC1CC1)c1cc2c(s1)-c1ccccc1N(C(=O)c1ccc(NC(=O)c3cccnc3N3CCC4(CC3)COC4)cc1)CC2 [AZ-27]	lost all ability to inhibit their resistant viruses																				
Cc1cn2nc([C@@H]3CCCCN3C(=O)c3cc(Cl)ccc3NS(C)(=O)=O)cc2nc1N1CC[C@H](N)C1 [GS-5806]	lost all ability to inhibit their resistant viruses	0.09 ± 0.07	0.54 ± 0.34	0.17 ± 0.15	0.11 ± 0.09	0.06 ± 0.05	0.21	0.14 ± 0.2	0.23 ± 0.3	0.13	0.13 ± 0.12	0.7	4.2	1.3	0.8	0.5	1.6	1.1	1.8	1.0	inhibition of viral RNA production by time of addition [2]: reduced when added at 0 hpi and completely lost when added at 8 hpi; EC50 Fold Change vs. WT ([4]; recombinant RSV Wild-type (WT)): 1.0 fold; EC50 Fold Change vs. WT ([5]; RSV-B VR-955 Population 1, N: M109K, L139Q (dual WT/mutant population)): 0.2 fold; EC50 Fold Change vs. WT ([5]; RSV-B VR-955 Population 2, N: M109T): 0.2 fold; EC50 Fold Change vs. WT ([5]; RSV-B VR-955 Wild-Type): 1 fold
O=C(Nc1ccccc1F)N[C@H]1N=C(c2ccccc2)c2ccccc2NC1=O [RSV-604]		1810	4300	9550	514 ± 159	2870	1860	2700	2480	1420	1150	1.6	3.7	8.3	0.4	2.5	1.6	2.3	2.1	1.2	reduction in viral load [6]: 2.31 log; concentration at 12 h after the last dose [7]: 637 nM; EC50 ([8]; HEp-2, 120 h): 1980 nM; EC50 ([8]; HEp-2, read-out: EC50, inhibition of viral replication): ~2000 nM; EC50 ([9]; HEp-2, 120 h): 1430 nM; EC50 ([9]; HEp-2, read-out: EC50, RSV-A Long-induced CPE): ~1400 nM; EC50 Fold Change vs. WT ([4]; recombinant RSV Wild-type (WT)): 1.0 fold; effect on RSV viral load vs vehicle control [10]: did not result in significant RSV viral load reduction; also recorded: unable to reduce viral load in a statistically significant manner; effect in a replicon assay [11]: minimal effect; EC50 Fold Change vs. WT ([5]; RSV-B VR-955 Wild-Type): 1 fold
palivizumab: monthly injectable monoclonal antibody against RSV																					relative reduction in RSV-associated hospitalizations [12]: approximately 55%
